Patent publication US12285435B2, “Multivesicular liposome formulations of dexamethasone” (Pacira Pharmaceuticals, Inc., priority 2021, dated 2025)

Tests used:
[1] = DSP, rapid absorption into the blood stream; cited from earlier work
[2] = Pharmacokinetic study of subcutaneous DSP-MVL formulations vs bolus DSP in rats (dexamethasone plasma levels); format: in vivo; conditions: rat
Protocol: Pharmacokinetic (PK) studies of the subcutaneous dosing of DSP discussed herein were performed on rats where bolus DSP was compared to various formulations of DSP-MVLs at doses between 1.0 to 3.5 mg/kg for rats and at 0.5 mg/kg for beagles. Formulations 3AA, 5AA, 8AA, 11AA, 14AA, 4B, and 1C were diluted to 19-20% PPV from the initial PPV of about 30-45% with a final DSP concentration of approximately about 3 mg/mL to 3.5 mg/mL. Formulations 47-49 were not diluted, and the DSP concentration in the final product was approximately 7 mg/mL. In addition, PK studies of Formulation 18AA were performed on beagles through subcutaneous and epidural dosing of DSP of about 0.5 mg/kg.
Plasma samples were collected at different times points (0, 24, 48, 72, 96, 120, 144 and 168 hours post dose) for analysis. Blood samples were collected via the right saphenous vein using a 19-gauge needle prick or cardiac puncture for the final time point, placed into chilled tubes containing the appropriate anticoagulant, inverted several times to mix, protected from light, and kept on ice until centrifugation. A summary of the data in FIG. 1-6 is set forth below in Tables 1-2. For the rat studies, Cumulative % AUC is expressed as a percentage of the total AUC obtained in animals administered with Free DSP. For the dog studies, Cumulative % AUC is expressed as a percentage of the total AUC for each dog.
FIG. 1 is a line chart illustrating the dose normalized dexamethasone plasma levels obtained in rats as a function of time, following administration of several DSP-MVL formulations varying in internal pH (Formulations 47-49) as compared to DSP in a saline solution (“Free DSP Solution” Formulation).
FIG. 4 is a line chart illustrating the dose normalized dexamethasone plasma level obtained in rats as a function of time, following administration of two DSP-MVL formulations with and without triolein (Formulations 5AA and 3AA).
FIG. 5 is a line chart illustrating the dose normalized dexamethasone plasma levels obtained in rats as a function of time, following administration of several DSP-MVL formulations varying in lipid component concentrations (Formulations 4B and 1C).

[3] = percentage of the total AUC obtained in animals administered with Free DSP

What does the source list for “dexamethasone sodium phosphate [Free DSP]”?
plasma half-life [1]: ~3.33 h; Tmax [2]: 1 h; AUC/dose ([2]; dose normalized): 1182 ng·h/mL/mg/kg; Cumulative AUC % at 7 days [2, 3]: 100%; Cumulative AUC % at 14 days [2, 3]: 100%
